Laboratory results taken from patent publication US9745348B2 (The University of Manchester, priority 2011, dated 2017).
Read-outs that look alike come from different tables or passages of the source. Where no end group is shown, it is not given here. The star is where a group is joined. FITC = O=C1OC2(c3ccc(O)cc3Oc3cc(O)ccc32)c2ccc(NC(=S)*)cc21; Ahx = NCCCCCC(=O)O

Key:
[1] = MTT viability of fibroblasts over three days; assay type: cell-based, human; conditions: human, adult fibroblasts (HDFa cells)
Description: (§1) MTT assay: Cell viability and proliferation is widely assessed by the MTT assay as already described previously.
(§2) The fibroblasts cells, Neonatal (HDFn) and Adult (HDFa), were both grown until greater than 80% confluent. […] After 24 hour incubation the culture medium was replaced with fresh medium containing an appropriate amount of the peptide for investigation.
(§3) The viability of the fibroblasts, Adult (HDFa) and Neonatal (HDFn) cells in the presence of surfactants was tested by MTT assay over three days relative to control wells containing cells only.

[2] = test system: HeLa and HL60 cancer cell lines; conditions: 24 h
Description: Antitumor activities of peptides were measured using the 3-(4,5-dimethylthiazol-2-yl)-2,-diphenyl tetrazolium bromide (MTT) assay, and the IC50 value was calculated as the concentration of peptide that induced 50% growth inhibition compared to the untreated control.
HeLa and HL60 cells were seeded in 96-well plates (10^5 cells/well) in a complete medium [Iscove's modified dulbecco's medium (IMDM)] with 10% fetal bovine serum (FBS) for 24 h before peptide treatment. […] Following incubation with peptides, 20 μL of a 5 mg/ml solution MTT reagent was added to each well and incubated for 4 h at 37° C. After removing the supernatant, 150 μL of dimethyl sulfoxide (DMSO) was added to dissolve the formazan crystals that remained in the wells. The absorbance was determined using a microplate ELISA Reader at 570 nm. Wells without cells for blanking the spectrophotometer and the cells without peptides were taken as negative controls.

[3] = test system: cytokine genes IL2 and IL8 of human lymphocytes; conditions: 10 μM, 1 h
Description: RT-PCR (Reverse Transcription Polymerase Chain Reaction and Real Time Polymerase Chain Reaction): To determine the related gene transcriptional activities about HeLa cell apoptosis and the lymphocyte immunological effects, RT-PCR assays were performed. […] Total RNA from the cells was extracted by Trizol following the manufacturer's instructions (Invitrogen, Britain). Total RNA (1 μg) was subject to cDNA synthesis with random primers (PrimeScript Reverse Transcriptase, Takara, Japan). Real-Time PCR was performed with power SYBR green PCR Master Mix kit (Applied Biosystems, American) using a 7500 real-time PCR system (Applied Biosystems, American) according to the protocol of the manufacturer, and the data were analyzed by relative quantitation of the 2^−ΔΔCt method. Transcriptional levels of related genes were normalized to the values of the house keeping gene β-actin.

[4] = test system: E. coli DH5α and B. subtilis 168; assay type: cell-based, Escherichia coli; Bacillus subtilis; conditions: 1 h
Description: To determine antibacterial activity of peptides, survival rate curves were constructed. Bacteria (E. coli DH5α or B. subtilis 168) were incubated with peptide at varying peptide concentrations at 37° C. for 1 h. Aliquots of 2 μL were withdrawn, diluted and spread on agar plates. After overnight incubation at 37° C., the surviving bacteria were expressed as the percentage of total cells, and survival curves drawn (FIG. 4). Controls were bacteria without peptide. The minimal inhibitory concentrations (MICs) of each peptide were measured by standard microdilution method. The test was done in sterile 96-well plates in a final volume of 200 μL. Aliquots (100 μL) of a bacterial suspension at 1×10^5 (colony-forming units (CFU)/ml) in culture medium were added to […] peptide solution (2-fold serial dilutions in 10 mM PBS buffer). […] The MIC was defined as the lowest concentration of peptide for which there was no visible growth. Each determination was performed at least three times.

[5] = test system: fibroblasts Adult (HDFa) cells; assay: MTT viability of fibroblasts over three days; assay type: cell-based, human
Description: as §1, §2, §3

[6] = test system: E. coli, (EC) and S. aureus, (SA); assay: Bacterial growth by optical density, statements for both bacteria; assay type: cell-based, Escherichia coli; Staphylococcus aureus; conditions: 1 wt %; for antibacterial activity of surfactant alone: both SA and EC
Description: Bacteria E. coli, (EC) and S. aureus, (SA) were grown in LB media at 37° C. with continuous shaking for 24 hours. The bacterial concentration was then adjusted such that the absorbance at 600 (A600) was controlled to ca 0.2 unit. The bacteria suspensions with the peptides were incubated in 96-well tissue culture plates. The total medium volume in each well was […]. […] Controls with media only and media with bacteria only were run alongside the peptide bacteria mixed suspensions. Measurements were taken at time t=0, t=20 and t=72 hours using optical density cell plate reader. The optical density (OD) is representative of the relative amount of bacterial growth within the medium.
Interactions of bacteria E. coli, (EC) and S. aureus, (SA) with surfactants were also studied. The bacteria were grown in LB media at 37° C. with continuous shaking for 24 hours. The bacterial concentration was then adjusted such that the absorbance at 600 (A600) was controlled at ca 0.2 unit. The bacteria suspensions with surfactants were incubated in 96-well tissue culture plates. The total medium volume in each well was 200 μL. Again, surfactant concentrations of 1% were used. Controls with media only and media with bacteria only were run alongside the surfactant-bacteria mixed suspensions. Measurements were taken at time t=0, t=20 and t=72 hours using optical density cell plate reader again.

in vitro = assay type: cell-based; conditions: human, neonatal fibroblasts (HDFn cells)
Description: as §1
The fibroblasts cells, Neonatal (HDFn) and Adult (HDFa), were both grown until greater than 80% confluent. The cells were then harvested and seeded into micro well plate at cell densities of 5000 cells/well in a volume […] of medium. After 24 hour incubation the culture medium was replaced with fresh medium containing an appropriate amount of the peptide for investigation.

[7] = test system: NIH 3T3 cells co-cultured with B. subtilis 168 or HL60 cancer cells; assay: Co-culture selectivity, distribution of FITC-labeled peptide by fluorescence microscopy; assay type: cell-based; conditions: 20 μM, 1 hour incubation
Description: To further verify the selective cytotoxicity of G(IIKK)3I-NH2 (SEQ ID NO: 3) in vitro, we added the FITC-labeled G(IIKK)3I-NH2 (SEQ ID NO: 3) to the two co-culture systems containing mammalian cell line NIH 3T3 (model host) and bacteria B. subtilis 168 or cancer cell line (HL 60). Specifically, NIH 3T3 cells were cultured at 37° C. with 5% CO2 in IMDM supplemented with 10% FBS. After reaching an over 80% confluence, the cells were transferred into a 6-well plate containing sterile coverslips at bottom to a final concentration of 1×10^5 cells/well. After overnight culture at 37° C., the medium was replaced with 1 ml B. subtilis 168 suspended in PBS with a density of 1×10^6 CFU/ml or 1 ml HL 60 cells suspended in PBS with a density of 1×10^5 cells/ml. Meanwhile, FITC-labeled G(IIKK)3I-NH2 (SEQ ID NO: 3) dissolved in the same buffer was also added to each well to the final concentration of 20 μM. […]
To further confirm the selective responses and cytotoxicity of the peptides, FITC-labeled G(IIKK)3I-NH2 (SEQ ID NO: 3) was synthesized according to the method described previously by Jullian M, et al (Julian et al 2009). […] After incubation for 1 hour, the distribution of FITC-G(IIKK)3I-NH2 (SEQ ID NO: 3) was observed using fluorescence microscopy and the results are shown in FIG. 12. […]

[8] = test system: human red blood cells (hRBCs); assay: Hemolytic activity, hemoglobin release; assay type: cell-based; conditions: up to 250 μM, 1 h at 37° C.
Description: Peptide hemolytic activities were measured by determining hemoglobin release by 4% (v/v) suspensions of fresh human erythrocytes at 540 nm. Fresh human red blood cells (hRBCs) from volunteers were centrifuged and washed three times with PBS (pH7.4). 100 μL of hRBCs suspended in PBS at 8% (v/v) were mixed with 100 µL of different series of 2-fold diluted peptides in a sterile 96-well plate. The plates were incubated for 1 h at 37° C., and centrifuged at 1000 g for 5 min. 100 μL aliquots of the supernatant were transferred to new 96-well plates, and hemoglobin release monitored by measuring supernatant absorbance at 540 nm with a microplate ELISA Reader. As negative and positive controls, hRBCs in PBS and 0.1% Triton X-100 were employed. The hemolysis percentage was calculated using the follow equation: % hemolysis=[(Abs540 nm with peptide−Abs540 nm in PBS)/[(Abs540 nm with 0.1% Triton X-100−Abs540 nm in PBS)×100 Observing Bacterial Membrane Lysis by Fluorescence Microscopy

Compound: GIIKKIIKKIIKKI-NH2 [Helix G3, G(IIKK)3 I-NH2]
- viability at 24 h, 5 µM [1]: 91%
- viability at 24 h, 25 µM [1]: 88%
- viability at 24 h, 50 µM [1]: 87%
- viability at 24 h, 100 µM [1]: 78%
- viability at 48 h, 5 µM [1]: 92%
- viability at 48 h, 25 µM [1]: 85%
- viability at 48 h, 50 µM [1]: 84%
- viability at 48 h, 100 µM [1]: 75%
- viability at 72 h, 5 µM [1]: 81%
- viability at 72 h, 25 µM [1]: 80%
- viability at 72 h, 50 µM [1]: 75%
- viability at 72 h, 100 µM [1]: 71%
- IC50 [2]: 4 to 25 µM
- relative transcriptional levels of IL2 and IL8 of lymphocytes [3]: lower or almost equal to that of control cells
- MICs (minimum inhibitory concentrations) [4]: 0.5 to 8 µM

Compound: sodium lauryl ether sulphate [SLES]
- MTT results (relative MTT reading) [5]: 0.00
- antibacterial activity of surfactant alone [6]: some antibacterial influence

Compound: GIIKKIIKKIIKKIIKKI-NH2 [Helix G4, G(IIKK)4 I-NH2]
- viability at 24 h, 5 µM [1]: 90%
- viability at 24 h, 25 µM [1]: 87%
- viability at 24 h, 50 µM [1]: 85%
- viability at 24 h, 100 µM [1]: 81%
- viability at 48 h, 5 µM [1]: 84%
- viability at 48 h, 25 µM [1]: 81%
- viability at 48 h, 50 µM [1]: 78%
- viability at 48 h, 100 µM [1]: 70%
- viability at 72 h, 5 µM [1]: 81%
- viability at 72 h, 25 µM [1]: 78%
- viability at 72 h, 50 µM [1]: 65%
- viability at 72 h, 100 µM [1]: 55%
- IC50 [2]: 4 to 25 µM
- MICs (minimum inhibitory concentrations) [4]: 0.5 to 8 µM
- viability at 24 h, 5 µM (in vitro): 95%
- viability at 24 h, 25 µM (in vitro): 85%
- viability at 24 h, 50 µM (in vitro): 81%
- viability at 24 h, 100 µM (in vitro): 73%
- viability at 48 h, 5 µM (in vitro): 92%
- viability at 48 h, 25 µM (in vitro): 77%
- viability at 48 h, 50 µM (in vitro): 71%
- viability at 48 h, 100 µM (in vitro): 65%
- viability at 72 h, 5 µM (in vitro): 79%
- viability at 72 h, 25 µM (in vitro): 74%
- viability at 72 h, 50 µM (in vitro): 65%
- viability at 72 h, 100 µM (in vitro): 53%

Compound: FITC-G(IIKK)3I-NH2: N-terminal FITC-labeled G(IIKK)3I-NH2 with 6-aminohexanoic acid (Ahx) between the last amino acid and the thiourea linkage ({FITC-Ahx}-GIIKKIIKKIIKKI-NH2; SMILES CC[C@H](C)[C@H](NC(=O)[C@H](CCCCN)NC(=O)[C@H](CCCCN)NC(=O)[C@@H](NC(=O)[C@@H](NC(=O)[C@H](CCCCN)NC(=O)[C@H](CCCCN)NC(=O)[C@@H](NC(=O)[C@@H](NC(=O)[C@H](CCCCN)NC(=O)[C@H](CCCCN)NC(=O)[C@@H](NC(=O)[C@@H](NC(=O)CNC(=O)CCCCCNC(=S)Nc1ccc2c(c1)C(=O)OC21c2ccc(O)cc2Oc2cc(O)ccc21)[C@@H](C)CC)[C@@H](C)CC)[C@@H](C)CC)[C@@H](C)CC)[C@@H](C)CC)[C@@H](C)CC)C(N)=O)
- distribution of green fluorescence of FITC-labeled peptide in co-culture [7]: concentrated in the bacterial clusters or the HL60 cells but not in any part of the 3T3 cells

Compound: cocamidopropyl aetaine [Tt]
- antibacterial activity of surfactant alone [6]: some antibacterial influence

Compound: CCCCCCCCCCCC[N+](C)(C)C.[Br-] [Helix C12TAB, Dodecyl trimethylammonium bromide]
- MTT results (relative MTT reading) ([5]; HDFa, surfactant 1%, Day 1): 0.00
- MTT results (relative MTT reading) ([5]; HDFa, surfactant 1%, Day 2): 0.00
- MTT results (relative MTT reading) ([5]; HDFa, surfactant 1%, Day 3): 0.00
- growth of bacteria after 72 hours ([6]; 72 hours): no growth of bacteria
- antibacterial activity of surfactant alone [6]: significant antibacterial activity

Compound: GIIKKI-NH2 [G(IIKK)I-NH2]
- hemolytic activity [8]: inactive
